Assay results published in the NIST ThermoML archive (doi:10.1016/j.tca.2015.02.020).
± gives the expanded uncertainty stated by the source.

Experiment: molar heat capacity at constant pressure; xn = mol fraction of the nth substance listed
Conditions: 101 kPa, Glass, Small sample (50 mg) DSC

## CC(O)CN (stereo not given) [1-amino-2-propanol] + O
126.79 K, x1 = 0.15
  molar heat capacity at constant pressure: 27.11 ± 5.3 J/K/mol
126.79 K, x1 = 0.16
  molar heat capacity at constant pressure: 28.24 ± 5.7 J/K/mol
126.94 K, x1 = 0.19
  molar heat capacity at constant pressure: 28.86 ± 5.8 J/K/mol
127.55 K, x1 = 0.19
  molar heat capacity at constant pressure: 28.57 ± 1.2 J/K/mol
127.56 K, x1 = 0.26
  molar heat capacity at constant pressure: 32.53 ± 1.3 J/K/mol
127.57 K, x1 = 0.26
  molar heat capacity at constant pressure: 32.86 ± 6.6 J/K/mol
127.69 K, x1 = 0.15
  molar heat capacity at constant pressure: 27.64 ± 1.1 J/K/mol
127.71 K, x1 = 0.16
  molar heat capacity at constant pressure: 27.96 ± 1.1 J/K/mol
127.73 K, x1 = 0.68
  molar heat capacity at constant pressure: 51.16 ± 2.3 J/K/mol
127.76 K, x1 = 0.68
  molar heat capacity at constant pressure: 51.16 ± 10 J/K/mol
130.83 K, x1 = 0.19
  molar heat capacity at constant pressure: 29.15 ± 1.2 J/K/mol
130.83 K, x1 = 0.26
  molar heat capacity at constant pressure: 33.19 ± 1.3 J/K/mol
130.96 K, x1 = 0.15
  molar heat capacity at constant pressure: 28.71 ± 1.3 J/K/mol
130.98 K, x1 = 0.16
  molar heat capacity at constant pressure: 28.51 ± 1.4 J/K/mol
131 K, x1 = 0.68
  molar heat capacity at constant pressure: 52.86 ± 2.3 J/K/mol
131.45 K, x1 = 0.15
  molar heat capacity at constant pressure: 28.71 ± 5.8 J/K/mol
131.45 K, x1 = 0.16
  molar heat capacity at constant pressure: 30.14 ± 6 J/K/mol
131.61 K, x1 = 0.19
  molar heat capacity at constant pressure: 30.31 ± 6.1 J/K/mol
132.23 K, x1 = 0.26
  molar heat capacity at constant pressure: 34.17 ± 6.9 J/K/mol
132.42 K, x1 = 0.68
  molar heat capacity at constant pressure: 52.29 ± 10 J/K/mol
134.1 K, x1 = 0.19
  molar heat capacity at constant pressure: 29.73 ± 1.2 J/K/mol
134.1 K, x1 = 0.26
  molar heat capacity at constant pressure: 33.85 ± 1.3 J/K/mol
134.24 K, x1 = 0.15
  molar heat capacity at constant pressure: 29.5 ± 1.3 J/K/mol
134.25 K, x1 = 0.16
  molar heat capacity at constant pressure: 29.05 ± 1.4 J/K/mol
134.27 K, x1 = 0.68
  molar heat capacity at constant pressure: 54 ± 2.3 J/K/mol
136.13 K, x1 = 0.15
  molar heat capacity at constant pressure: 30.3 ± 6.1 J/K/mol
136.13 K, x1 = 0.16
  molar heat capacity at constant pressure: 31.77 ± 6.2 J/K/mol
136.28 K, x1 = 0.19
  molar heat capacity at constant pressure: 32.04 ± 6.3 J/K/mol
136.9 K, x1 = 0.26
  molar heat capacity at constant pressure: 35.49 ± 7.2 J/K/mol
137.09 K, x1 = 0.68
  molar heat capacity at constant pressure: 54.57 ± 11 J/K/mol
140.66 K, x1 = 0.19
  molar heat capacity at constant pressure: 31.17 ± 1.4 J/K/mol
140.66 K, x1 = 0.26
  molar heat capacity at constant pressure: 35.49 ± 1.6 J/K/mol
140.8 K, x1 = 0.15
  molar heat capacity at constant pressure: 30.83 ± 1.3 J/K/mol
140.8 K, x1 = 0.16
  molar heat capacity at constant pressure: 33.39 ± 6.8 J/K/mol
140.81 K, x1 = 0.15
  molar heat capacity at constant pressure: 31.63 ± 6.4 J/K/mol
140.81 K, x1 = 0.16
  molar heat capacity at constant pressure: 30.41 ± 1.4 J/K/mol
140.83 K, x1 = 0.68
  molar heat capacity at constant pressure: 56.27 ± 2.3 J/K/mol
140.96 K, x1 = 0.19
  molar heat capacity at constant pressure: 32.9 ± 6.6 J/K/mol
141.59 K, x1 = 0.26
  molar heat capacity at constant pressure: 36.8 ± 7.2 J/K/mol
141.77 K, x1 = 0.68
  molar heat capacity at constant pressure: 55.7 ± 11 J/K/mol
143.95 K, x1 = 0.19
  molar heat capacity at constant pressure: 31.75 ± 1.4 J/K/mol
143.95 K, x1 = 0.26
  molar heat capacity at constant pressure: 36.15 ± 1.6 J/K/mol
144.09 K, x1 = 0.15
  molar heat capacity at constant pressure: 31.63 ± 1.3 J/K/mol
144.1 K, x1 = 0.16
  molar heat capacity at constant pressure: 30.95 ± 1.4 J/K/mol
144.11 K, x1 = 0.68
  molar heat capacity at constant pressure: 57.41 ± 2.3 J/K/mol
145.5 K, x1 = 0.16
  molar heat capacity at constant pressure: 34.75 ± 7.1 J/K/mol
145.65 K, x1 = 0.19
  molar heat capacity at constant pressure: 34.35 ± 6.9 J/K/mol
146.28 K, x1 = 0.26
  molar heat capacity at constant pressure: 38.12 ± 7.6 J/K/mol
146.29 K, x1 = 0.15
  molar heat capacity at constant pressure: 33.22 ± 6.6 J/K/mol
146.45 K, x1 = 0.68
  molar heat capacity at constant pressure: 56.84 ± 11 J/K/mol
150.19 K, x1 = 0.16
  molar heat capacity at constant pressure: 36.11 ± 7.3 J/K/mol
150.34 K, x1 = 0.19
  molar heat capacity at constant pressure: 35.5 ± 7.2 J/K/mol
150.53 K, x1 = 0.19
  molar heat capacity at constant pressure: 33.48 ± 1.4 J/K/mol
150.53 K, x1 = 0.26
  molar heat capacity at constant pressure: 38.12 ± 1.6 J/K/mol
150.67 K, x1 = 0.15
  molar heat capacity at constant pressure: 33.22 ± 1.3 J/K/mol
150.68 K, x1 = 0.16
  molar heat capacity at constant pressure: 32.31 ± 1.4 J/K/mol
150.69 K, x1 = 0.68
  molar heat capacity at constant pressure: 59.68 ± 2.3 J/K/mol
150.97 K, x1 = 0.26
  molar heat capacity at constant pressure: 39.1 ± 7.9 J/K/mol
150.99 K, x1 = 0.15
  molar heat capacity at constant pressure: 34.29 ± 6.9 J/K/mol
151.15 K, x1 = 0.68
  molar heat capacity at constant pressure: 57.98 ± 11 J/K/mol
153.82 K, x1 = 0.19
  molar heat capacity at constant pressure: 34.06 ± 1.4 J/K/mol
153.82 K, x1 = 0.26
  molar heat capacity at constant pressure: 39.1 ± 1.6 J/K/mol
153.96 K, x1 = 0.15
  molar heat capacity at constant pressure: 34.02 ± 1.6 J/K/mol
153.98 K, x1 = 0.16
  molar heat capacity at constant pressure: 33.12 ± 1.4 J/K/mol
153.98 K, x1 = 0.68
  molar heat capacity at constant pressure: 60.82 ± 2.8 J/K/mol
